# Measurements: patent US8273787B2, “Activated cytotoxic compounds for attachment to targeting molecules for the treatment of mammalian disease conditions” (Onconova Therapeutics, Inc, priority 2006, dated 2012)
# pIC50: −log10 of the molar value.
# Key:
# [1] = system: prostate cancer cells (DU145); experiment: FACS cell cycle and apoptosis, DU145; format: cell-based; settings: 20 nM, treated over 72 hours
# Protocol: (§1) Treatment of cancer cells with either of these two compounds will result in a mitotic arrest followed by the onset of apoptosis in a dose dependent manner. FACS analysis of normal and tumor cells treated with ON 01500 and ON 013100. A. Cells treated for 24 hrs with ON 01500. B. Cells treated with ON 013100 (20 nM) and harvested at various time points thereafter. FIG. 6. […] ON 013100 treatment of normal human umbilical vein endothelial cells (HLVECs) results in a similar cell cycle distribution. FIG. 6.B illustrates cells that have been treated over 72 hours. […] This characteristic should greatly increase the “therapeutic window” of the resulting immunoconjugates since there are now two layers of selectivity. The first being the selective binding and release of the cytotoxic compound only in cells expressing the tumor specific antigen, and the innate selectivity of the compounds themselves. This will provide additional protection of the patient if non-selective binding or release occurs.
# [2] = system: normal human umbilical vein endothelial cells; experiment: FACS cell cycle, HUVEC; format: cell-based; settings: HUVECs, 20 nM, treated over 72 hours
# Protocol: as §1
# [3] = system: 22RV1 prostate carcinoma cells; experiment: dose response assay, 22RV1 cells; format: cell-based; settings: Homo sapiens
# Protocol: The penultimate precursor to compound ON 14013100 (an NHS-activated prodrug of ON 013100)—ON 13013100—lacks the activating group for conjugation to mAbs, and served as a suitable candidate to test for plasma stability. […] See, FIG. 4 which illustrates a dose response assay comparing ON 013100 to its linked version, ON 013013100. 22RV1 cells were treated with various concentrations of ON 013100 and its linked version […]. […] Current synthetic work is now focusing towards optimizing a variety of parameters (i.e. spacer length and type, mAb conjugation method, etc.) associated with the current result. Future studies will involve the synthesis and evaluation of a diverse collection of ON 01500 and ON 013100 prodrugs with the ultimate goal of improving pharmacokinetics, blood compartment stability, and intratumoral accumulation and drug release. Infra; see, Examples.
# [4] = system: multiple myeloma cell lines; experiment: growth inhibition, multiple myeloma cell lines (panel statement); format: cell-based, Human; settings: statement in words
# From the text: Pellat-Deceunynk, C., et al., Human Myeloma Cell Lines As A Tool For Studying The Biology Of Multiple Myeloma: A Reappraisal 18 Years After, Blood 86(10):4001-2 (1995); Gooding, R. P., et al., Phenotypic And Molecular Analysis Of Six Human Cell Lines Derived From Patients With Plasma Cell Dyscrasia, British Journal of Haematology 106:669-688 (1999).
# [5] = system: Human breast carcinoma (BT20) cells; experiment: nude mouse xenograft model, BT20; format: in vivo; settings: 10 mg/kg by IP injections, Q2Dx3
# Protocol: Human breast carcinoma (BT20) cells were injected subcutaneously into female athymic nude mice (ncr/ncr). […] The average tumor volume and body weights were determined on the indicated days.
# BT20 cells were injected in female nude mice. The mice (N=5-8) were treated with ON 01500 (Panel A.) at 10 mg/kg by IP injections or Vehicle alone (DMSO) every other day Q2Dx3.
Structure (SMILES),cell cycle distribution and apoptosis (FACS) [1],cell cycle distribution (FACS) [2],pIC50 [3],"IC50 values, multiple myeloma cell lines [4]",weight loss or toxicity [5]
"COc1cc(OC)c(/C=C/S(=O)(=O)Cc2ccc(OC)c(O)c2)c(OC)c1 [ON 013100, (E)-5-((2,4,6-trimethoxystyrylsulfonyl)methyl)-2-methoxyphenol]",G2/M arrest followed by apoptosis in a time dependent manner,arrest in the G1 stage of the cell cycle,8.00,nearing picomolar concentrations,–
"COc1cc(OC)c(/C=C/S(=O)(=O)Cc2ccc(OC)c(N)c2)c(OC)c1 [ON 01500, (E)-2,4,6-trimethoxystyryl-4-methoxy-3-aminobenzylsulfone]",–,–,–,–,without any signs of weight loss or toxicity
